According to ChEMBL document CHEMBL1201862, “PubChem BioAssay data set” (2004):
The source made the active and inactive calls.

What was measured:
[1] = cytotoxicity toward DRD oncogenic fibroblasts, dose response, cell-based, non-viral oncogenic, luminescence (AID 1934); assay type: functional; details: Homo sapiens
BJ [2] = assay: cytotoxicity toward Ras-transformed BJeLR fibroblasts, dose response, cell-based, alamar blue fluorescence, cherrypicked samples (AID 2631); assay type: functional; details: Homo sapiens;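 further: confirmatory dose-response assay in RAS-dependent BJ fibroblasts engineered with TERT, LT and ST, with cytotoxicity read by fluorescence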
BJ [3] = assay: cytotoxicity toward BJ-TERT-LT-ST fibroblasts, dose response, cell-based, RAS-independent, luminescence (AID 1935); assay type: functional; details: Homo sapiens;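 further: BJ fibroblasts immortalized with TERT plus LT and ST oncogenes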
Beta-galactosidase = Beta-galactosidase (Escherichia coli, UniProt Q8VNN2); assay: PubChem AID 485352; assay type: functional
Chain of Beta-galactosidase (Q8VNN2 whole entry): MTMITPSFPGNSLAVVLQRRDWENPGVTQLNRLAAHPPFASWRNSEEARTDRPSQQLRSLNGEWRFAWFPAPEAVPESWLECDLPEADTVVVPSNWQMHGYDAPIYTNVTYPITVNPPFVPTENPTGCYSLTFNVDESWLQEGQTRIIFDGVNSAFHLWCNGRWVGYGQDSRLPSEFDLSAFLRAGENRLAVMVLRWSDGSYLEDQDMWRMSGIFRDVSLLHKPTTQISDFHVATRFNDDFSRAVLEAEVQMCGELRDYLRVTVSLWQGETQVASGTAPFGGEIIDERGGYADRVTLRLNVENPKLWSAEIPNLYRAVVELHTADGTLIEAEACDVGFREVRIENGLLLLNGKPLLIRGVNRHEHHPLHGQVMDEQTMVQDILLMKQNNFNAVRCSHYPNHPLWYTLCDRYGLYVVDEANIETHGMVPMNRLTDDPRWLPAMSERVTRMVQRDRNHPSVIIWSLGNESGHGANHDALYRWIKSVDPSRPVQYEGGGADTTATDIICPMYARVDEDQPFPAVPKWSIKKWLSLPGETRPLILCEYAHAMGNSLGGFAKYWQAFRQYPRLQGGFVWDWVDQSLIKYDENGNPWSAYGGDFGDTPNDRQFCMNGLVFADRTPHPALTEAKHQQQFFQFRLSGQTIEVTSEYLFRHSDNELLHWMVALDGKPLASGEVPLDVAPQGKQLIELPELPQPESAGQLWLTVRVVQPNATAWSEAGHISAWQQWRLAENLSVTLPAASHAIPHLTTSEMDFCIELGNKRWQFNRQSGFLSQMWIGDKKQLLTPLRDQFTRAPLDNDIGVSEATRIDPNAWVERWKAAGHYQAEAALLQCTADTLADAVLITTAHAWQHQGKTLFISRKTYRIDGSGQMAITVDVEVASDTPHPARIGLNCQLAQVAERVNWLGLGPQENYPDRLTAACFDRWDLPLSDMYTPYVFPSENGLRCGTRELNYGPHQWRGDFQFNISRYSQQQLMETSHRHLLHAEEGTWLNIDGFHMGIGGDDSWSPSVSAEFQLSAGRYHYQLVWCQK

[4] = Luminescence Cell-Based Dose Retest to Confirm Inhibitors of Cancer Stem Cells. [Related pubchem assays (depositor defined):AID2717, AID2721]; assay type: functional; details: Homo sapiens
[5] = biological target: T1, Type-1 angiotensin II receptor (Homo sapiens, UniProt P30556); assay: AT1 receptor antagonists, dose response, selectivity assay for APJ receptor antagonist project, cell-based, uHTS hits (AID 463214); assay type: functional;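 further: antagonist potency against angiotensin II stimulated AT1 response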
T1 sequence (P30556 whole entry): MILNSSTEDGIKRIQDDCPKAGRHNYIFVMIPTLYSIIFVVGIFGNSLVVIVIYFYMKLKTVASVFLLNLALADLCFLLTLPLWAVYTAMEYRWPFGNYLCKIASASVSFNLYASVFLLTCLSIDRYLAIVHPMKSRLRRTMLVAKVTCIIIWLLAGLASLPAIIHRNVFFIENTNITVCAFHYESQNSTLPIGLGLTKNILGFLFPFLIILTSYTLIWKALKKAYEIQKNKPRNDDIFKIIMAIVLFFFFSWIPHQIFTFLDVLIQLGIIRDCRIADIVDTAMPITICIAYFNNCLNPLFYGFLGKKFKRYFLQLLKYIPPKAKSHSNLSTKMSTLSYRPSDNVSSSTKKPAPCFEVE

[6] = Shn3 3'UTR reporter inhibitors, dose response, cell-based, Clone20 osteoblasts, firefly luciferase, cherry-picked (AID 624132); assay type: functional;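 further: firefly luciferase luminescence from reporter carrying the Shn3 3'UTR in osteoblasts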
Vero [7] = assay: cells; assay type: functional, cell-based; details: Chlorocebus sabaeus
Vero [8] = assay: cells; assay type: functional; details: Chlorocebus sabaeus
[9] = HepG2 cell cytotoxicity, dose response, cytotoxicity control for Shn3 inhibitor project, CellTiter-Glo, cherry-picked (AID 624134); assay type: functional, cell-based
BJ [10] = assay: cytotoxicity toward BJ-TERT fibroblasts, dose response, cell-based, RAS-independent, luminescence (AID 1933); assay type: functional; details: Homo sapiens
BJ [11] = assay: cells; assay type: functional, cell-based; details: Homo sapiens
[12] = control 3'UTR Renilla luciferase suppression, dose response, counter-screen for Shn3 inhibitor project, cell-based, Clone20-Shn3RL, cherry-picked (AID 624133); assay type: functional
Streptococcus = assay: Group A Streptococcus viability loss, dose response, counter-screen for streptokinase expression inhibitor project, luminescence, BacTiterGlo (AID 1915); assay type: functional, organism-based;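 further: potency for reduction of bacterial viability or growth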
[13] = biological target: T2, Zinc finger protein mex-5 (Caenorhabditis elegans, UniProt Q9XUB2); assay: MEX-5/TCR-2 RNA interaction inhibitors, dose response, biochemical, C. elegans, fluorescence polarization (AID 1960)
T2 sequence (Q9XUB2 whole entry): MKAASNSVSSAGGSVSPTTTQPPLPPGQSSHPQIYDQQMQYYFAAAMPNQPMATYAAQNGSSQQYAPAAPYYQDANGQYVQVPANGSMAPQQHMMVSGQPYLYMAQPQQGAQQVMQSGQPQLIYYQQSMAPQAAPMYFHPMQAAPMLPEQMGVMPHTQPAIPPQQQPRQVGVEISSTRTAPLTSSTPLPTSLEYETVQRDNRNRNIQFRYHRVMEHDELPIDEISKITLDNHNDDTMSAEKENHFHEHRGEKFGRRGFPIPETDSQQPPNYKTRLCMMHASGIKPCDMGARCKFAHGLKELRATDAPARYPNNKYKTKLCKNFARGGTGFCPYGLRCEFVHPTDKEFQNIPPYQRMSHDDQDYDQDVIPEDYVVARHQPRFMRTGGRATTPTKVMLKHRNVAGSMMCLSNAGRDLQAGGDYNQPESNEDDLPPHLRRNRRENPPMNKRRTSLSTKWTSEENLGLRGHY

Streptokinase A = biological target: T3, Streptokinase A (Streptococcus pyogenes serotype M1, UniProt P10520); assay: S. pyogenes streptokinase expression inhibitors, potency, dose response, plasminogen activation absorbance, OD405 (AID 1914); assay type: functional, Streptococcus pyogenes M1 GAS;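 further: secreted streptokinase activity via plasminogen activation per viability signal from cell pellet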
T3 sequence (P10520 whole entry): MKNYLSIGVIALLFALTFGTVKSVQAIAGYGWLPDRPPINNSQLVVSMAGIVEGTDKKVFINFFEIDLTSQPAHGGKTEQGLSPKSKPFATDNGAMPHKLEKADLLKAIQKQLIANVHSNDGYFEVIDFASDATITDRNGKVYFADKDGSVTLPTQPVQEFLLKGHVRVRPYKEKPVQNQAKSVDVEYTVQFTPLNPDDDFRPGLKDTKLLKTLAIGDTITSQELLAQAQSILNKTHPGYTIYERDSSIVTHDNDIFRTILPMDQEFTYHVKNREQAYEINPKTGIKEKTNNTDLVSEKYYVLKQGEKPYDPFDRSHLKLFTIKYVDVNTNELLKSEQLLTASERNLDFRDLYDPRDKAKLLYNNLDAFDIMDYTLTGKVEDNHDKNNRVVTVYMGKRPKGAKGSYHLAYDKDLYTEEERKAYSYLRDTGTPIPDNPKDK

[14] = biological target: T4, Rac GTPase-activating protein 1 (Homo sapiens, UniProt Q9H0H5); assay: MgcRacGAP GTPase-activating activity inhibitors, confirmation, biochemical, ADP Hunter fluorescence, primary and confirmatory (AID 624330); assay type: functional
T4 sequence (Q9H0H5 whole entry): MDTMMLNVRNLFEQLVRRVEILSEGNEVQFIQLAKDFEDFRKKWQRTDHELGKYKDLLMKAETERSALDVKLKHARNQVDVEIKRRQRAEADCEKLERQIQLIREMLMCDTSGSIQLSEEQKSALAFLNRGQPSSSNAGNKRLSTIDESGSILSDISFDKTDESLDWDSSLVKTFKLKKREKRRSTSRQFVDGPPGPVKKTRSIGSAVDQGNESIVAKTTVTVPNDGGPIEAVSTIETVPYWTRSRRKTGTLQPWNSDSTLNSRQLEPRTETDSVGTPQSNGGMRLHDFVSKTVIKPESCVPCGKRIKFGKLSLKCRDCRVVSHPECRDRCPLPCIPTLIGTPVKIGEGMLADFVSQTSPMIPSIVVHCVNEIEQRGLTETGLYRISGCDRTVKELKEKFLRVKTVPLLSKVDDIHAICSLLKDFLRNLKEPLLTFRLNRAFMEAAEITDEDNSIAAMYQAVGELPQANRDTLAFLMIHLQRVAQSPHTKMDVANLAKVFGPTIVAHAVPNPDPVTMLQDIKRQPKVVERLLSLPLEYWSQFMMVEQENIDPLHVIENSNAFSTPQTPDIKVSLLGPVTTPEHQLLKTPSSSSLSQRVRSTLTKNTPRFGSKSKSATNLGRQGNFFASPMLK

[15] = biological target: T5, Probable nicotinate-nucleotide adenylyltransferase (Staphylococcus aureus (strain N315), UniProt P65502); assay type: functional, Staphylococcus aureus subsp. aureus N315; details: read-out: IC50_Mean;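 on IC50 Mean: confirmatory dose-response retesting of NadD inhibitor hits first found in an ultra-high-throughput screen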
T5 sequence (P65502 whole entry): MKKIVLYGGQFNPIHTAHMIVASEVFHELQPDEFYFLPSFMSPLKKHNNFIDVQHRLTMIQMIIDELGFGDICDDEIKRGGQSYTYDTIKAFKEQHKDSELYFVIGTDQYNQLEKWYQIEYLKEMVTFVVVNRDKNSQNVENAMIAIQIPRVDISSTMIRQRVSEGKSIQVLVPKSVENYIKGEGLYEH

[16] = system: Streptococcus sp. 'group A'; assay: growth inhibition of control SK(-) GAS strain, dose response, counter-screen for streptokinase expression inhibitor project, luminescence, kanamycin, BacTiterGlo, confirmation (AID 1900); assay type: functional, organism-based
[17] = biological target: T5, Probable nicotinate-nucleotide adenylyltransferase; assay type: functional, Staphylococcus aureus subsp. aureus N315
[18] = biological target: T6, RNA-binding protein pos-1 (Caenorhabditis elegans, UniProt G5EF15); assay: inhibitors of POS-1/mex-3 RNA binding, dose response, biochemical, fluorescence polarization (AID 1964);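 further: purified POS-1 fused to maltose binding protein made in E. coli; potency of compounds blocking POS-1 binding to fluorescent RNA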
T6 sequence (G5EF15 whole entry): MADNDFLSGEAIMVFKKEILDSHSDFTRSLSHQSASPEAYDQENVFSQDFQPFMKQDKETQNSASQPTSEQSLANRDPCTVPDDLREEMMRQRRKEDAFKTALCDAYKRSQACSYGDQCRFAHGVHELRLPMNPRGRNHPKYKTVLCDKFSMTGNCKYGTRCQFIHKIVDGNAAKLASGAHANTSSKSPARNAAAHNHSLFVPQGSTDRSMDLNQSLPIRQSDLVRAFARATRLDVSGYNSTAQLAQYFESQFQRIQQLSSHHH

H9c2 = assay: cells; assay type: functional, cell-based; details: Rattus norvegicus, H9c2, Myocardium;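 further: confirmatory concentration-response retest of ultra-high-throughput screening hits for modulation of myocardial damage; cell death induced by hydrogen peroxide oxidative stress; compound pretreatment for 60 min then peroxide exposure for 2 h; potency is for protecting the cells against peroxide damage rather than for killing them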

SMILES | EC50 [1] | EC50 (BJ [2]) | EC50 (BJ [3]) | EC50 (BJ [11]) | IC50 [14] | IC50 [15] | IC50 [17] | also measured
CCN1C(=O)C(=Cc2cccc(OC)c2Oc2ccc([N+](=O)[O-])cc2[N+](=O)[O-])SC1=S | 4.38 µM (active) | 2.22 µM (active) | 3.5 µM (active) | 3.45 µM (inconclusive) | – | – | – | EC50 (Beta-galactosidase): > 40 µM (inactive); AC50 [4]: 853 nM (active); IC50 [5]: > 40 µM (not active); AC50 [6]: 1.89 µM (active); IC50 (Vero [7]): > 6.25 µM (active); CC50 (Vero [8]): 3.96 µM (active); AC50 [9]: 5.77 µM (active); EC50 (BJ [10]): 2.5 µM (inconclusive); AC50 [12]: 7.11 µM (active)
Cc1cccc2sc(NNC(=O)c3cc(=O)c4ccccc4o3)nc12 | – | – | – | – | 94 µM (active) | 35.2 µM (active) | 5.9 µM (active) | EC50 (Streptococcus): 7.43 µM (active); EC50 [13]: > 300 µM (not active); EC50 (Streptokinase A): > 150 µM (not active); EC50 [16]: 449 nM (active); EC50 [18]: > 300 µM (not active)
Cn1cccc1/C=C1\SC(Nc2ccc(O)cc2)=NC1=O | 0.362 µM (active) | < 0.104 µM (active) | 0.357 µM (inconclusive) | 0.926 µM (inconclusive) | 94.8 µM (active) | – | – | –
Cc1ccc(Cl)cc1N1CCN(S(=O)(=O)c2ccc3[nH]c(=O)c(=O)[nH]c3c2)CC1 | – | – | – | – | – | 52.8 µM (active) | 7.01 µM (active) | –
COc1cccc(Nc2nc(-c3sc(NC(=O)c4ccco4)nc3C)cs2)c1 | – | – | – | – | – | 33.2 µM (active) | 13.5 µM (active) | IC50 (H9c2): > 79 µM (inactive)
